Like-named read-outs stand apart in the source and are kept apart here.
Columns and labels:
psychotomimetic effects = details: cited from earlier work
[1] = test system: neurotoxic side effects of MK-801 or phencyclidine; details: cited from earlier work
Alzheimer's disease = details: cited from earlier work
depressive symptoms = details: cited from earlier work
[2] = test system: excitotoxic neurodegeneration; experiment: standard animal models of excitotoxic neurodegeneration; assay type: in vivo; details: only at very high doses that cause severe functional and behavioral disturbances
Description: However, it may well be that such concerns, by the Applicants, are not especially serious or acute, in view of the relatively low dosages of memantine that are actually being administered to Alzheimer patients. The Applicants have tested memantine, in animals, to measure and quantify its ability to protect against excitotoxic neurodegeneration, using several standard animal models that are used to test and measure excitotoxic neurodegeneration. […] Therefore, it is very unlikely that memantine is being administered, to Alzheimer patients, at dosages that are actually high enough to prevent excitotoxic neurodegeneration, since the dosages being used in human patients are not causing the types of observable functional disturbances that have been seen when anti-excitotoxic dosages are administered.

cerebrocortical neurons [3] = details: rats, persistent administration of the NMDA antagonist; cited from earlier work
neuropathic pain [4] = details: cited from earlier work
[5] = as an anesthetic; cited from earlier work
cerebrocortical neurons [6] = experiment: vacuole formation / neurotoxic damage in rat brain after NMDA antagonist administration; details: for vacuole-forming ED100 dosage: intraperitoneal injection, aging female rats, vacuole response in 100% of animals; for potency relative to MK-801 (from ED100 numbers): vacuole formation / NMDA receptor blocker ranking, fraction of MK-801 potency
Description: First, that dosage is based on intraperitoneal injection. […] This is a simple, quick, and convenient mode of injection, and it is widely used in research. If desired, intravenous injection in rats can be performed by using the tail vein, but that is slower, more tedious, more difficult, and more prone to experimental error.
This runs contrary to most types of drug tests on rats, in which females tend to be avoided, because of potentially uncontrolled variables created by reproductive hormones. Most female rats that have been used, in tests done to date, are retired breeders, with ages of about 7 months or more.
For convenience, to avoid having to use subscript fonts or notations, terms such as […] also can be written as ED-100, or simply as […].
Whenever a term such as ED100 is being used, it requires an understanding of any essential factors that should be known by any researchers who might try to perform similar tests. In this situation, researchers would need to know the route of administration (intraperitoneal injection), and the types of animals used to determine the ED100 level (i.e., aging female rats).

[7] = test system: neurotoxic side effects of MK-801 or phencyclidine; experiment: safener protection against neurotoxic side effects (vacuole formation) of NMDA antagonists; assay type: in vivo, rat
neuropathic pain [8] = experiment: animal models of neuropathic pain; assay type: in vivo
neuropathic pain [9] = details: cited from earlier work; remark: listed apart in the source

Q: Which “psychotomimetic effects of NMDA antagonists in humans” value (psychotomimetic effects) does the source give for `Nc1nnc(-c2cccc(Cl)c2Cl)c(N)n1` [lamotrigine] here?
A: suppressed or prevented

Q: What about the “neurotoxic effects of NMDA antagonists in animals” value [1] of the same compound?
A: suppressed or prevented

Q: What does the source list for `CC12CC3CC(C)(C1)CC(N)(C3)C2` [memantine]?
A: further deterioration of cognitive function (Alzheimer's disease; Alzheimer patients): did not prevent further deterioration; global assessment of cognition and ability to manage daily activities (Alzheimer's disease; low dose, middle-stage Alzheimer patients): transient and slight improvements; improvement in depressive symptoms (depressive symptoms; 20 mg/day, 8 weeks, severe chronic depression (Zarate et al 2006a)): no signs of improvement; protection against excitotoxic damage [2]: some level of protection against excitotoxic damage

Q: For `[N-]=[N+]=O` [nitrous oxide], which “time after which irreversible changes inside animal brains begin to manifest” value (cerebrocortical neurons [3]) is on record?
A: about 8 hours

Q: For `OC(CCN1CCCC1)(c1ccccc1)C1CCCCC1` (stereo not shown) [procyclidine], which “relief for neuropathic pain” value (neuropathic pain [4]; animal models, reported in journals) is on record?
A: offers relief for neuropathic pain

Q: With `Clc1cccc(Cl)c1N=C1NCCN1` [clonidine] as the compound, how does the “effect on MK-801's neuropathic pain-relieving activity” value (neuropathic pain [4]; administered together with MK-801) read?
A: potentiates

Q: And the “neuropathic pain relieving activity” value (neuropathic pain [4]; alone)?
A: neuropathic pain relieving activity

Q: And the “psychotomimetic effects of NMDA antagonists in humans” value (psychotomimetic effects)?
A: suppressed or prevented

Q: What about the “neurotoxic effects of NMDA antagonists in animals” value [1] of the same compound?
A: suppressed or prevented

Q: With `CN[C@]1(c2ccccc2Cl)CCCCC1=O` [S-ketamine] as the compound, how does the “anesthetic potency relative to R-ketamine” value [5] read?
A: about twice as potent

Q: With `c1ccc(C2(N3CCCCC3)CCCCC2)cc1` [phencyclidine] as the compound, how does the “vacuole-forming ED100 dosage” value (cerebrocortical neurons [6]) read?
A: 4.0 mg/kg

Q: What about the “potency relative to MK-801 (from ED100 numbers)” value (cerebrocortical neurons [6]) of the same compound?
A: about 1/10

Q: For `Nc1nc2ccc(OC(F)(F)F)cc2s1` [riluzole], which “benefit in major depression” value (depressive symptoms; Zarate et al 2004) is on record?
A: beneficial

Q: For `O=C(CCCN1CCC(O)(c2ccc(Cl)cc2)CC1)c1ccc(F)cc1` [haloperidol], which “prevention of NMDA antagonist-induced vacuole formation” value ([7]; test animals, given at the same time as the NMDA antagonist, clinically relevant dosages) is on record?
A: could not prevent

Q: What about the “safening potency compared with sigma-selective drugs” value ([1]; required substantially higher dosages) of the same compound?
A: not as potent or effective

Q: Which “safening activity against neurotoxic side effects of MK-801” value ([7]; coadministered with MK-801, unpublished experiments) does the source give for `CN(C)CCC=C1c2ccccc2CCc2ccccc21` [amitriptyline] here?
A: substantial safening activity

Q: And the neuropathic pain-relieving activity (neuropathic pain [8]; animal models, administered by itself)?
A: neuropathic pain-relieving activity

Q: And the “effect on neuropathic pain-relieving activity of memantine” value (neuropathic pain [8]; coadministered with memantine)?
A: potentiated

Q: Which “potency relative to phencyclidine (from ED100 numbers)” value (cerebrocortical neurons [6]; fraction of phencyclidine potency) does the source give for `CNC1(c2ccccc2Cl)CCCCC1=O` (racemic) [ketamine] here?
A: about 1/10

Q: And the “vacuole-forming ED100 dosage” value (cerebrocortical neurons [6])?
A: 40 mg/kg

Q: What about the “potency relative to MK-801 (from ED100 numbers)” value (cerebrocortical neurons [6]) of the same compound?
A: about 1/100

Q: What about the “relief from depressive symptoms” value (depressive symptoms; intravenous infusion for 40 minutes, small group (Berman et al 2000)) of the same compound?
A: transient but significant relief

Q: And the “relief from depressive symptoms” value (depressive symptoms; prolonged subanesthetic intravenous infusion up to 4 days, 2 patients (Correll et al 2005))?
A: rapid and lasting relief

Q: What about the “time to relief from depressive symptoms after infusion” value (depressive symptoms; single 40 minute intravenous infusion, treatment resistant depression (Zarate et al 2006b)) of the same compound?
A: less than 2 hours

Q: What about the “duration of remission of symptoms” value (depressive symptoms; single 40 minute intravenous infusion, significant number of patients (Zarate et al 2006b)) of the same compound?
A: up to a week

Q: What about the side effects (neuropathic pain [9]; continuous subcutaneous infusion, one patient (Backonja et al 1994)) of the same compound?
A: intolerable cognitive and memory side effects

Q: And the side effects (neuropathic pain [9]; single-dosage injections, six patients (Backonja et al 1994))?
A: mild and well tolerated

Q: What about the side effects (neuropathic pain [9]; subcutaneous injections over 7 days and nights (Eide et al 1995)) of the same compound?
A: intolerable side effects

Q: What does the source list for `N=C(N)N/N=C/c1c(Cl)cccc1Cl` [guanabenz]?
A: psychotomimetic effects of NMDA antagonists in humans (psychotomimetic effects): suppressed or prevented; neurotoxic effects of NMDA antagonists in animals [1]: suppressed or prevented

Q: For `CN1CCN(C2=Nc3cc(F)ccc3Cc3ccccc32)CC1` [fluperlapine], which “reduction of toxic side effects of MK-801 and PCP” value ([1]; tests on rats) is on record?
A: reduce the toxic side effects
